Counter-ions that a name gives are not always drawn. Like-named read-outs stand apart in the source and are kept apart here.
Legend:
[1] = molecular target: T1, rhesus (Macacca Mulatta) H3 receptor (Macaca mulatta, UniProt Q865E1); assay: Rhesus H3 radioligand binding assay ([3H]-Methylhistamine displacement, WGA SPA beads); set-up: species or system rhesus monkey (Macacca Mulatta); conditions: read-out: Affinity: ki in Rhesus H3 membrane
T1 construct: pcDNA5/FRT/TO (Invitrogen) containing the rhesus monkey (Macacca Mulatta) 445 amino acid H3 receptor
T1 sequence (Q865E1 1-445): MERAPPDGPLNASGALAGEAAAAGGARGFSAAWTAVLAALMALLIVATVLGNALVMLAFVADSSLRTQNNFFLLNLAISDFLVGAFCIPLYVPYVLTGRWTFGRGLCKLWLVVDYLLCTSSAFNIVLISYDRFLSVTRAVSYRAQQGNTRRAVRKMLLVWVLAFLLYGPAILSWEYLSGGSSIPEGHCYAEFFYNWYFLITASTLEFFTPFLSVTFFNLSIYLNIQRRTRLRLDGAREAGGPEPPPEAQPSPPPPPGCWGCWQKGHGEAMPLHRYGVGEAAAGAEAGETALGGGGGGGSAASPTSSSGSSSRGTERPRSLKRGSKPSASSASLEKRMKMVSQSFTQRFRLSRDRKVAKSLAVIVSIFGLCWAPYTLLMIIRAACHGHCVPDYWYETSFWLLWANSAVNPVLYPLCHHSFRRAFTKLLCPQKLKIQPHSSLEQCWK
Description: (§1) (Genbank #AY231164). Stably transfected cultures were amplified in tissue culture flasks by standard tissue culture methods and induced to express rhesus H3 by exposure to 500 ng/ml tetracycline (Cellgro) for 24 hours. After induction, cells were dissociated from flasks utilizing Cell Stripper (Cellgro). Cells were centrifuged (1K×g, 5 min) and pellet frozen in an ethanol-dry ice bath to disrupt cell membranes. Frozen cell pellet was re-suspended in 5 mM HEPES (pH 7.4, Invitrogen) at 10 ml/1000 cm2 of harvested cells. The cell suspension was drawn through an 18 gauge needle (2-3×) followed by a 23 gauge needle (2-3×) to further disrupt cell membranes. The cell suspension was centrifuged (40K×g, 30 min). Cell membrane pellet was re-suspended in 5 mM HEPES (pH 7.4, Invitrogen) at a final protein concentration of 10 mg/ml. Rhesus H3 membranes were stored under liquid nitrogen prior to use in [3H]-Methylhistamine and GTPγS radioligand binding assays.
Rhesus H3 radioligand binding assay was performed using rhesus H3 receptor membranes (prepared as described above), [3H]-Methylhistamine (Perkin Elmer) and WGA SPA beads (wheat germ agglutinin scintillation proximity assay) beads (Amersham). The assay was performed in 96-well Opti-Plates (Packard). Each reaction contained 50 μl rhesus H3 membranes (20-30 μg total protein), 50 μl WGA SPA beads (0.1 μg) and 50 μl of 83 Ci/mmol [^3H]-Methylhistamine (final concentration 2 nM) and 50 μl of tested compound. The compounds of this invention and/or vehicle were diluted with binding buffer from 10 mM DMSO stocks. Assay plates were sealed with TopSeal (Perkin Elmer) and mixed on shaker (25° C., 1 hour). Assay plates were read on TopCount scintillation counter (Packard). Results were analyzed by Hill transformation and Ki values were determined by Cheng-Prusoff equation.

[2] = system: rhesus H3; assay: GTPγS radioligand binding assay, inhibition of rhesus H3 constitutive functional activity in cell membranes; assay type: biochemical, rhesus monkey (Macacca Mulatta); conditions: Table 1; relative to basal level
Description: as §1, with “Rhesus H3 membranes were prepared from the Flp-In T-REx 293 Cell Line (Invitrogen) stably transfected with pcDNA5/FRT/TO (Invitrogen) containing the rhesus monkey (Macacca Mulatta) 445 amino acid H3 receptor. (Genbank” for “(Genbank”

[3] = Table 2, stereoisomer comparison, procedure of Example 148
[4] = Table 1, [3H]-Methylhistamine 2 nM, Cheng-Prusoff

Cc1cc(N2CC[C@H](N3CCC[C@H]3C)C2)ccc1NC(=O)c1cc(F)ccc1C [Example 5, 5-Fluoro-2-methyl-N-[2-methyl-4-(2(2R)-methyl-[1,3′(3′S)]bipyrrolidinyl-1′-yl)-phenyl]-benzamide]
Ki [1, 3]: 121 nM

Cc1cc(N2CCC(N3CCCC3C)C2)ccc1NC(=O)c1ccc(F)cc1 (stereo not drawn) [Example 7, 4-Fluoro-N-[2-methyl-4-(2-methyl-[1,3′]bipyrrolidinyl-1′-yl)-phenyl]-benzamide]
Ki [1, 4]: 2.06 nM | Inverse Agonism: % inhibition of Basal GTPγS binding in Rhesus H3 [2]: −31%

Cc1cc(N2CC[C@@H](N3CCC[C@@H]3C)C2)ccc1NC(=O)c1cc(F)ccc1C [Example 3, 5-Fluoro-2-methyl-N-[2-methyl-4-(2(2S)-methyl-[1,3′(3′R)]bipyrrolidinyl-1′-yl)-phenyl]-benzamide]
Ki [1, 3]: 7.3 nM

Cc1cc(N2CC[C@H](N3CCC[C@@H]3C)C2)ccc1NC(=O)c1ccc2ccoc2c1 [Example 73, Benzofuran-6-carboxylic acid [2-methyl-4-(2(S)-methyl-[1,3′(S)]bipyrrolidinyl-1′-yl)-phenyl]-amide trifluoroacetate]
Ki [1, 4]: 0.78 nM | Inverse Agonism: % inhibition of Basal GTPγS binding in Rhesus H3 [2]: −15%

Cc1cc(N2CC[C@H](N3CCC[C@@H]3C)C2)ccc1NC(=O)c1ccc2[nH]ccc2c1 [Example 52, 1H-Indole-5-carboxylic acid [2-methyl-4-(2(S)-methyl-[1,3′(5)]-bipyrrolidinyl-1′-yl)-phenyl]-amide trifluoroacetate]
Ki [1, 4]: 0.77 nM | Inverse Agonism: % inhibition of Basal GTPγS binding in Rhesus H3 [2]: −17%

Cc1cc(N2CC[C@@H](N3CCC[C@H]3C)C2)ccc1NC(=O)c1cc(F)ccc1C [Example 12, 5-Fluoro-2-methyl-N-[2-methyl-4-(2-(R)-methyl-[1,3′(R)]bipyrrolidinyl-1′-yl)-phenyl]-benzamide hydrochloride]
Ki [1, 3]: 147 nM

Cc1cccc(C(=O)Nc2ccc(N3CC[C@H](N4CCC[C@@H]4C)C3)cc2C)n1 [Example 86, 6-Methyl-pyridine-2-carboxylic acid [2-methyl-4-(2(S)-methyl-[1,3′(S)]bipyrrolidinyl-1′-yl)-phenyl]-amide trifluoroacetate]
Ki [1, 4]: 1.42 nM | Inverse Agonism: % inhibition of Basal GTPγS binding in Rhesus H3 [2]: −18%

Cc1cc(N2CC[C@@H](N3CCC[C@@H]3C)C2)ccc1NC(=O)c1cc(F)ccc1C [Example 11, 5-Fluoro-2-methyl-N-[2-methyl-4-(2-(2S)-methyl-[1,3′(3′S)]bipyrrolidinyl-1′-yl)-phenyl]-benzamide]
Ki [1, 3]: 2.5 nM
